Laboratory results published in patent publication US5932742A, “Arylsulfonylimidazolone derivatives as an antitumor agent” (priority 1996, dated 1999).
≈ marks a conversion by molar mass, not a printed value. Counter-ions that a name gives are not always drawn. Like-named read-outs stand apart in the source and are kept apart here.

Key:
[1] = system: SK-OV-3 (ATCC HTB 77): human ovarian adenocarcinoma; experiment: In vitro antitumor activity, MTT assay, SK-OV-3; type: cell-based; settings: Homo sapiens
How it was run: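 Cells seeded at 10,000 per well, grown 24 h, then exposed 48 h at 37 °C to compound at final 20 to 0.00128 μg/ml (5-fold dilutions, DMSO below 0.5%). MTT added for 4 h, formazan dissolved in DMSO, absorbance read at 540 nm; IC50 estimated by linear regression.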

[2] = system: Colo205 (ATCC CCL 222): human colon adenocarcinoma; experiment: In vitro antitumor activity, MTT assay, Colo205; type: cell-based; settings: Homo sapiens
How it was run: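 Colo205 cells in RPMI 1640/10% FBS were exposed 48 h at 37 °C to 5-fold serial dilutions, final 20 to 0.00128 µg/ml, DMSO below 0.5%. MTT added for 4 h, formazan dissolved in DMSO, A540 read versus medium control; IC50 by linear regression.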

[3] = system: K562 (ATCC CCL 243): human chronic myelogenous leukemia; experiment: In vitro antitumor activity, MTT assay, K562; type: cell-based; settings: Homo sapiens, K562, 48 h
How it was run: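 K562 cells (10,000/well) pre-cultured 24 hrs, then exposed 48 hrs at 37° C. to serially 5-fold diluted compound, final 20 μg/ml to 0.00128 μg/ml, DMSO below 0.5%. MTT added 4 hrs; formazan dissolved in DMSO, A540 read. Cytotoxicity as test/control absorbance; IC50 by linear regression.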

[4] = system: A549 (ATCC CCL 185): human lung carcinoma; experiment: In vitro antitumor activity, MTT assay, A549; type: cell-based; settings: Homo sapiens, A549, 48 h
How it was run: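 A549 cells in RPMI 1640 with 10% FBS, 10,000 cells/well, pre-cultured 24 hrs, then exposed 48 hrs at 37° C to compound at 20 to 0.00128 μg/ml final (5-fold steps, DMSO below 0.5%). MTT added for 4 hrs, formazan dissolved in DMSO and read at 540nm; IC50 by linear regression of % of control.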

[5] = system: KB (ATCC CCL 17): human epidermoid carcinoma; experiment: In vitro antitumor activity, MTT assay, KB; type: cell-based; settings: Homo sapiens, read-out: IC50 (KB)
Method: In vitro antitumor activity against human tumor cell lines
In vitro antitumor activity of the compounds according to the present invention was determined by MTT assay method against the following human tumor cell lines:
KB (ATCC CCL 17): human epidermoid carcinoma
In this test, the known antineoplastic compounds, Doxorubicin and Sulofenur, were used as the comparative agents.
Each of the tumor cells was cultured in RPMI 1640 media containing 10% fetal bovine serum, 100 IU/ml penicillin and 100 μg/ml streptomycin, and then periodically subcultured once or twice per week in trypsin-EDTA solution containing 0.05% trypsin and 0.53mM EDTA.4Na. The human tumor cell line thus obtained (10,000cells/100 μl) was plated on 96-well microplate and then cultured for 24 hrs at 37° C. in a 5% CO2 incubator. Test compound was dissolved in DMSO, sterilized with 0.22 μm PVDF filter, and then serially 5-fold diluted from 40 μg/ml to 0.00256μg/ml. 100 μl of the sample solution thus prepared and RPMI 1640 medium only (control group) were added to 96-well microplate containing the human tumor cell, respectively. The final concentration of the test compound was in the range from 20 μg/ml to 0.00128 μg/ml and the concentration of DMSO was below 0.5%. The cells were cultured for 48 hrs at 37° C. in a 5% CO2 incubator. MTT(3-(4,5-Dimethylthiazole-2-yl)-e,5-diphenyltetrazoliumbromide) was dissolved in physiological saline in a concentration of 2 mg/ml and the resulting solution was filtered through 0.22 μm PTFE filter. 25 μl of MTT solution thus prepared was added to each well of 96-well microplate and incubated for additional 4 hrs at 37° C. in a 5% CO2 incubator. Then, the content of microplate was centrifuged at 1000 rpm for 10 min, and supernatant was removed by flicking. The formazan formed from MTT by mitochondrial succinate dehydrogenase was dissolved in 100 μl of DMSO. The absorbance of each well was measured at 540nm by micro ELISA reader and the cytotoxicity was calculated by dividing the absorbance of test group by the absorbance of control group. After the calculated cytotoxicity (%) was plotted, the concentration of 50% tumor growth inhibition concentration (IC50) was estimated by Linear-Regression method.

[6] = system: P388 murine leukemia cells; experiment: In vivo antitumor activity against P388 murine leukemia cell; design: species or system BDF1 mouse; settings: 6.25 mg/kg i.p., once per 2 days for 10 days; median survival time
Method: In vivo antitumor activity against P388 murine leukemia cell
P388 murine leukemia cells were injected into BDF1 mouse intraperitoneally and grown in the peritoneal cavity. The P388 cells were periodically exudated and reinjected intraperitoneally into mouse for subculture.
The cells were exudated, washed, resuspended in saline (2×10^7 cells/ml), and then injected intraperitoneally again into BDF1 mouse (2×10^6 cells/0.1 ml).
Test compound dissolved in appropriate vehicle was administered intraperitonealy or orally into the mouse which was implanted with P388 murine leukemia tumor cells in the frequency of once per 2 days for 10 days. The vehicle was administered into the mouse of control group. Then, the number of live animals were daily checked to estimate the median survival time (MST).
T/C ratio(%) of each test compound was calculated according to the following formula, and the test results are shown in Table 6.
T/C(%)=(MST of test group.div.MST of control group)×100

[7] = COLO 205, Table 2, 48 hrs, read-out: IC50 (Colo205)
[8] = COLO 205, Table 1, 48 hrs, read-out: IC50 (Colo205)
[9] = COLO 205, Table 3, 48 hrs, read-out: IC50 (Col205)

Compound | IC50 ([4]; Table 1) [µg/mL] | IC50 ([1]; SK-OV-3, Table 2, 48 hrs) [µg/mL] | IC50 [2, 7] [µg/mL] | IC50 ([4]; Table 2) [µg/mL] | IC50 ([5]; Table 2, MTT, 48 hrs) [µg/mL] | IC50 ([1]; SK-OV-3, Table 1, 48 hrs) [µg/mL] | IC50 [2, 8] [µg/mL] | IC50 ([5]; Table 1, MTT, 48 hrs) [µg/mL] | also measured
COc1cccc2c1C(=O)c1c(O)c3c(c(O)c1C2=O)C[C@@](O)(C(=O)CO)C[C@@H]3O[C@H]1C[C@H](N)[C@H](O)[C@H](C)O1 [Doxorubicin, reference compound] | 0.742 (≈ 1.37 µM) | – | – | – | – | – | – | – | IC50 ([1]; SK-OV-3, 48 h, Table 1): 2.25 µg/mL (≈ 4.15 µM); IC50 ([1]; SK-OV-3, 48 h, Table 3): 1.31 µg/mL (≈ 2.42 µM); IC50 ([1]; SK-OV-3, 48 h, Table 4): 2.25 µg/mL (≈ 4.15 µM); IC50 ([1]; SK-OV-3, 48 h, Table 5): 1.6 µg/mL (≈ 2.94 µM); IC50 ([2]; COLO 205, 48 h, read-out: IC50 (Col205), Table 3): 6.3 µg/mL (≈ 11.6 µM); IC50 ([2]; COLO 205, 48 h, read-out: IC50 (Colo205), Table 1): 0.973 µg/mL (≈ 1.79 µM); IC50 ([2]; COLO 205, 48 h, read-out: IC50 (Colo205), Table 5): 0.961 µg/mL (≈ 1.77 µM); IC50 ([3]; read-out: IC50 (K562), Table 3): 0.276 µg/mL (≈ 0.508 µM); IC50 ([3]; read-out: IC50 (K562), Table 4): 0.962 µg/mL (≈ 1.77 µM); IC50 ([3]; read-out: IC50 (K562), Table 5): 0.78 µg/mL (≈ 1.44 µM); IC50 ([4]; Table 3): 0.67 µg/mL (≈ 1.23 µM); IC50 ([4]; Table 4): 1.08 µg/mL (≈ 1.99 µM); IC50 ([4]; Table 5): 1.68 µg/mL (≈ 3.09 µM); IC50 ([5]; 48 h): 0.914 µg/mL (≈ 1.68 µM)
CC1Cc2cc(S(=O)(=O)n3cc(-c4ccccc4)[nH]c3=O)ccc2N1C(=O)c1ccc(NC(=O)CCl)cc1 (centres unmarked) [Example 20, 4-phenyl-1-[N-(4-chloroacetylaminobenzoyl)-2-methylindoline-5-sulfonyl]-2-imidazolone] | – | 0.598 (≈ 1.09 µM) | 0.91 (≈ 1.65 µM) | 0.509 (≈ 0.924 µM) | 0.198 (≈ 0.359 µM) | – | – | – | –
O=C(Nc1ccccc1)N1CCc2cc(S(=O)(=O)N3CC(c4ccccc4)NC3=O)ccc21 (centres unmarked) [Example 34, 4-phenyl-1-(N-phenylcarbamoylindoline-5-sulfonyl)-4,5-dihydro-2-imidazolone] | – | – | – | – | – | – | – | – | IC50 ([1]; SK-OV-3, Table 3, 48 hrs): 0.16 µg/mL (≈ 0.346 µM); IC50 [2, 9]: 1.26 µg/mL (≈ 2.72 µM); IC50 ([3]; Table 3, read-out: IC50 (K562)): < 0.0064 µg/mL; T/C rate (%) [6]: 140.9%; IC50 ([4]; Table 3): 0.178 µg/mL (≈ 0.385 µM)
CNCC(=O)N1c2ccc(S(=O)(=O)n3cc(-c4ccccc4)[nH]c3=O)cc2CC1C (centres unmarked) [Example 22, 4-phenyl-1-(N-methylaminoacetyl-2-methylindoline-5-sulfonyl)-2-imidazolone.HCl] | – | 3.08 | 3.8 | 3.24 | 0.688 | – | – | – | –
CC(C)CNCC(=O)N1c2ccc(S(=O)(=O)n3cc(-c4ccccc4)[nH]c3=O)cc2CC1C (centres unmarked) [Example 25, 4-phenyl-1-(N-isobutylaminoacetyl-2-methylindoline-5-sulfonyl)-2-imidazolone.HCl] | – | 1.4 | 3.07 | 3.23 | 0.246 | – | – | – | –
CCNC(=O)N1CCc2cc(S(=O)(=O)N3CC(c4ccccc4)NC3=O)ccc21 (centres unmarked) [Example 29, 4-phenyl-1-(N-ethylcarbamoylindoline-5-sulfonyl)4,5-dihydro-2-imidazolone] | – | – | – | – | – | – | – | – | IC50 ([1]; SK-OV-3, Table 3, 48 hrs): 1.95 µg/mL (≈ 4.7 µM); IC50 [2, 9]: 1 µg/mL (≈ 2.42 µM); IC50 ([3]; Table 3, read-out: IC50 (K562)): 1 µg/mL (≈ 2.42 µM); T/C rate (%) [6]: 113.6%; IC50 ([4]; Table 3): 0.318 µg/mL (≈ 0.767 µM)
CC1Cc2cc(S(=O)(=O)n3cc(-c4ccccc4)[nH]c3=O)ccc2N1C(=O)CCl (centres unmarked) [Example 21, 4-phenyl-1-(N-chloroacetyl-2-methylindoline-5-sulfonyl)-2-imidazolone] | – | 4.71 (≈ 10.9 µM) | 0.834 (≈ 1.93 µM) | 1.13 (≈ 2.61 µM) | 1.53 (≈ 3.54 µM) | – | – | – | –

More lines, main results first:

IC50 ([4]; Table 1) [µg/mL] | IC50 ([1]; SK-OV-3, Table 2, 48 hrs) [µg/mL] | IC50 [2, 7] [µg/mL] | IC50 ([4]; Table 2) [µg/mL] | IC50 ([5]; Table 2, MTT, 48 hrs) [µg/mL] | IC50 ([1]; SK-OV-3, Table 1, 48 hrs) [µg/mL] | IC50 [2, 8] [µg/mL] | IC50 ([5]; Table 1, MTT, 48 hrs) [µg/mL] | Compound | also measured
– | 0.202 (≈ 0.376 µM) | 0.58 (≈ 1.08 µM) | 0.438 (≈ 0.816 µM) | 0.046 (≈ 0.0857 µM) | – | – | – | O=C(CCl)Nc1ccc(C(=O)N2CCc3cc(S(=O)(=O)n4cc(-c5ccccc5)[nH]c4=O)ccc32)cc1 [Example 19, 4-phenyl-1-[N-(4-chloroacetylaminobenzoyl)indoline-5-sulfonyl]-2-imidazolone] | –
0.445 (≈ 0.909 µM) | – | – | – | – | 0.926 (≈ 1.89 µM) | 1.28 (≈ 2.62 µM) | 0.107 (≈ 0.219 µM) | CCOc1ccc(C(=O)N2CCc3cc(S(=O)(=O)n4cc(-c5ccccc5)[nH]c4=O)ccc32)cc1 [Example 14, 4-phenyl-1-[N-(4-ethoxybenzoyl)indoline-5-sulfonyl]-2-imidazolone] | –
0.199 (≈ 0.447 µM) | – | – | – | – | 1.22 (≈ 2.73 µM) | 0.644 (≈ 1.45 µM) | 0.028 (≈ 0.0629 µM) | O=C(c1ccccc1)N1CCc2cc(S(=O)(=O)n3cc(-c4ccccc4)[nH]c3=O)ccc21 [Example 13, 4-phenyl-1-(N-benzoylindoline-5-sulfonyl)-2-imidazolone] | –
0.02 (≈ 0.0454 µM) | – | – | – | – | 2.67 (≈ 6.07 µM) | 0.549 (≈ 1.25 µM) | 0.002 (≈ 0.00454 µM) | CC(C)(C)NC(=O)N1CCc2cc(S(=O)(=O)n3cc(-c4ccccc4)[nH]c3=O)ccc21 [Example 8, 4-phenyl-1-(N-t-butylcarbamoylindoline-5-sulfonyl)-2-imidazolone] | –
0.112 (≈ 0.251 µM) | – | – | – | – | 0.446 (≈ 0.999 µM) | 0.382 (≈ 0.856 µM) | 0.015 (≈ 0.0336 µM) | O=C(c1cccnc1)N1CCc2cc(S(=O)(=O)n3cc(-c4ccccc4)[nH]c3=O)ccc21 [Example 15, 4-phenyl-1-(N-nicotinylindoline-5-sulfonyl)-2-imidazolone] | –
– | > 20 | 2.05 (≈ 4.27 µM) | 0.607 (≈ 1.26 µM) | 0.13 (≈ 0.271 µM) | – | – | – | O=C(c1ccc(Cl)cc1)N1CCc2cc(S(=O)(=O)n3cc(-c4ccccc4)[nH]c3=O)ccc21 [Example 18, 4-phenyl-1-[N-(4-chlorobenzoyl)indoline-5-sulfonyl]-2-imidazolone] | –
